The test system of series [1] is MCF-7 cells. The series is described as follows: MTT cytotoxicity assay, MCF-7 cells transfected with α-enolase siRNA. Format: cell-based, human. As to the method: For a typical siRNA transfection, 1 nmole of the annealed siRNA duplex was mixed with 1.4 ml of Opti-MEM reagent (Invitrogen). In another tube, […] of Oligofectamine reagent (Invitrogen, Carlsbad, Calif.) is mixed with […] of Opti-MEM. The two solutions are combined and mixed gently by inversion and incubated for 20 min. at RT. The resulting solution is added to the cultured cells drop by drop in a 10 cm dish (cells are approximately 40-50% confluent). The next day the transfected cells were trypsinized and seeded in 6 or 96-well plates and further incubated for the indicated amount of time (assay dependent) before further analysis.
To evaluate the effect of α-enolase depletion on the chemosensitivity of cells to cytotoxic agents, MTT assays were performed in breast adenocarcinoma MCF-7 cells transfected with α-enolase specific siRNAs. […] The predicted EC50 values (the effective dose of a compound responsible for a positive effect half-way between baseline and maximum net impact) for the α-enolase-depleted cells are shown in Table 3. Similarly, results using other chemotherapeutic drugs are also shown in the table indicating the sensitivity of breast cancer tissue to α-enolase depletion.
In general terms: Formazan colour is commonly taken as a measure of viable cells.

The test system of series [2] is H460 cells. In words: MTT cytotoxicity assay, H460 cells transfected with α-enolase siRNA. Format: cell-based, human. On the procedure:
To establish the effectiveness of α-enolase silencing on other cancer cell types, H460 non-small cell lung cancer cells were challenged with a chemotherapeutic drug, MTT cytotoxicity assays were carried out and survival curves plotted as shown in FIG. 17.

Series [3] concerns MDA-435 cells. The series is described as follows: cells. The format is cell-based, human. Particulars: MDA-435 cells; for pEC50: Homo sapiens, MDA435. As to the method:
Similar tests utilizing α-enolase siRNA were performed on MDA-435 breast adenocarcinoma cells. Chemosensitivity to various drugs was determined for the MDA-435 cells as described above.

Series [4] has as its system PC-3 cells. The series is described as follows: MTT cytotoxicity assay, PC-3 cells transfected with α-enolase siRNA. The format is cell-based. The conditions noted are these: for pEC50: Homo sapiens.
The test system of series [5] is A549 cells. The series is described as follows: MTT cytotoxicity assay, A549 cells transfected with α-enolase siRNA.
Experimental: Small interfering RNA transfected cells were seeded in triplicate into 96-well plates at 5×10^3 cells/well 48 hrs post-transfection. The cells were incubated for an additional 16-24 hrs before they were exposed to increasing concentrations of cytotoxic drugs. […] Appropriate dilutions were made in the respective media for each cell line. Following addition of drugs, incubation was continued for an additional 72 hrs. Twenty-five ml of MTT dye (5 mg/ml) were added into each well and the plate was further incubated at 37° C. for 4 hrs. The dye was solubilized with 10% Triton X-100, 0.01 N HCl and further incubated at 37° C. in the dark for 30 min. Cell viability was determined by measure of absorption at 570 nm in a Wallac multiwell plate reader (PerkinElmer, Inc., Boston, Mass.). The averages of triplicate wells were plotted using the Prism software (GraphPad Software, Inc., San Diego, Calif.).
To investigate if α-enolase is broadly involved in mediating drug resistance to microtubule targeting agents, non-small cell lung cancer cell lines A549 and H460, respectively, were transfected with α-enolase siRNA and enolase expression and viability were assessed.
For series [6], the system named is α-enolase. In words: Western blot of α-enolase protein expression after siRNA transfection. Format: cell-based, human. The conditions noted are these: MCF-7 cells. On the procedure:
Western blot analysis utilizing anti-α-enolase antibodies was performed on MOLT4 cell extracts fractionated on SDS-PAGE (FIG. 3). Cells extract were prepared according to the protocol detailed in Example 1. […] Resolved proteins were electrophoretically transferred onto nitrocellulose membranes (Hybond, Amercham Pharmacia Biotech) for 1 hour. […] After blocking the membranes with 5% non-fat milk in 1×PBS overnight at 4° C., all antibody-binding reactions were performed in 5% non-fat milk in 1×PBS for 2 hours at room temperature for primary antibodies and for 1 hour for secondary antibodies coupled to HRP. The signal was detected by the Supersignal west Pico chemiluminescent substrate (Pierce, Rockford, Ill., USA). Two polyclonal antibodies against α-enolase were used: a goat antibody against human α-enolase (Santa Cruz Biotechology, Inc., Santa Cruz, Calif.); rabbit polyclonal antibody against human α-enolase (NNE) (MorphoSys AG, Munich, Del.). Membranes were subsequently blotted with anti-GAPDH (Novus Biologicals, Inc., Littleton, Colo.) or anti-prohibitin mouse monoclonal antibody (Lab Vision Corp., Fremont, Calif.) as controls for protein loading. To establish the importance of α-enolase to the expression of the drug-resistant phenotype in cell lines, α-enolase expression was silenced using RNAi. Briefly, the following siRNA duplexes targeting the human α-enolase mRNA were designed and purchased either from Ambion (Austin, Tex.) or Invitrogen (Carlsbad, Calif.). […] [NT] ID NO: 2) targeting the mRNA sequence corresponding to nucleotides […] from the start of the transcript (Ref Seq ID number: NM-001428). […] In another tube, […] of Oligofectamine reagent (Invitrogen, Carlsbad, Calif.) is mixed with […] of Opti-MEM. The two solutions are combined and mixed gently by inversion and incubated for 20 min. at RT. […] The next day the transfected cells were trypsinized and seeded in 6 or 96-well plates and further incubated for the indicated amount of time (assay dependent) before further analysis.
On the technique in general: A western blot detects proteins with antibodies after separation by electrophoresis.

Series [7] relates to CaOV3 cells. The series is described as follows: MTT cytotoxicity assay, CaOV3 cells transfected with α-enolase RNAi. Format: cell-based, human. Particulars: for pEC50: Homo sapiens, 72 hours post transfection. The text has this:
These observations were expanded by targeting α-enolase in the ovarian cancer cell line, CaOV3.

[8] abbreviates: Homo sapiens, MCF7, MCF-7 cells, control siRNA, 72 hrs drug, read-out: Control (EC50).
The mark [9] stands for this setting: Homo sapiens, MCF7, MCF-7 cells, α-enolase specific siRNA, read-out: α-Enolase (EC50).
Setting [10] is: Homo sapiens, NCI-H460, control, read-out: Control (EC50).
Setting [11] is: Homo sapiens, NCI-H460, α-enolase specific siRNA, read-out: α-Enolase (EC50).
[12] abbreviates: Eno-1 siRNA, read-out: Eno-1 (EC50).
The mark [13] stands for this setting: Eno-1 stealth siRNA, read-out: Eno-1 ST (EC50).
Where [14] appears, read: control siRNA, read-out: Control (EC50).
The mark [15] stands for this setting: mock transfection, read-out: Mock (EC50).
Setting [16] is: control, read-out: Control (EC50).
Where [17] appears, read: α-enolase specific siRNA, read-out: α-Enolase (EC50).
Where [18] appears, read: Homo sapiens, A549, read-out: Control (EC50).
Setting [19] is: Homo sapiens, A549, read-out: α-Enolase (EC50).

pEC50: −log10 of the molar value. Entries after “also recorded” stand apart in the source; their conditions may differ. Where two headings read alike, the source gives them in different places.

As to `CC(=O)O[C@@]12CO[C@@H]1C[C@H](O)[C@@]1(C)C(=O)[C@H](O)C3=C(C)[C@@H](OC(=O)[C@H](O)[C@@H](NC(=O)OC(C)(C)C)c4ccccc4)C[C@@](O)([C@@H](OC(=O)c4ccccc4)[C@H]21)C3(C)C` [Docetaxel], the pEC50 (commonly the EC50 on a negative log10 scale, so that one unit is a factor of ten) in series [1] (setting [8]) is 7.13; in series [1] (setting [9]) it was 7.44; in series [2] (setting [10]) it was 8.86; in series [2] (setting [11]), 9.18; in series [3] (setting [12]), 9.74; in series [3] (setting [13]), 9.91. Further, the pEC50 in series [3] (setting [14]) was 9.19; in series [3] (setting [15]), 9.65; in series [4] (setting [16]), 9.46; in series [4] (setting [17]), 10.26; in series [5] (setting [18]), 8.15; in series [5] (setting [19]), 9.46. Moreover, in series [2], the “viability of α-enolase-silenced cells under drug treatment vs control cells” value (“viability … vs control cells” below) is “decreased the viability”. For the same compound, the “sensitivity of α-enolase-silenced cells” value in series [3] was “Increases in sensitivity”. In addition, the “chemosensitivity of α-enolase-silenced cells (words)” value (from here on “chemosensitivity”) in series [5] (A549 cells) is on record as “enhanced chemosensitivity; also recorded: significant shifts in their chemosensitivities”.

As to “VEGF-directed siRNA: chemically modified Stealth siRNA duplex targeting VEGF, SEQ ID NO: 8 and 9 (chain 1 ACAAAUGUGAAUGCAGACCAAAGAA; chain 2 UUCUUUGGUCUGCAUUCACAUUUGU; chemically modified Stealth duplex, pattern not given here)”, the “decrease of α-enolase expression” value in series [6] was about 100%.

With `COc1cc([C@@H]2c3cc4c(cc3[C@@H](O[C@@H]3O[C@@H]5CO[C@@H](C)O[C@H]5[C@H](O)[C@H]3O)[C@H]3COC(=O)[C@H]23)OCO4)cc(OC)c1O` [Etoposide], the pEC50 in series [1] (setting [8]) is 4.79; in series [1] (setting [9]) it was 4.57; in series [2] (setting [10]) it was 5.27; in series [2] (setting [11]), 5.72; in series [5] (setting [18]), 4.69; in series [5] (setting [19]), 5.00. For the same compound, in series [2], the “viability … vs control cells” value is on record as “decreased the viability”. The “chemosensitivity” value in series [5] (A549 cells) was “increased sensitivity”.

Regarding `O=C1c2c(O)ccc(O)c2C(=O)c2c(NCCNCCO)ccc(NCCNCCO)c21` [Mitoxantrone], the pEC50 in series [1] (setting [8]) was 5.06; in series [1] (setting [9]), 5.11; in series [2] (setting [10]), 6.65; in series [2] (setting [11]), 7.15; in series [5] (setting [18]), 6.87; in series [5] (setting [19]), 7.05. For the same compound, in series [2], the “viability … vs control cells” value is “decreased the viability”. The “chemosensitivity” value in series [5] (A549 cells) was “increased sensitivity”.

As for `CC[C@]1(O)C[C@@H]2CN(CCc3c([nH]c4ccccc34)[C@@](C(=O)OC)(c3cc4c(cc3OC)N(C)[C@H]3[C@@](O)(C(=O)OC)[C@H](OC(C)=O)[C@]5(CC)C=CCN6CC[C@]43[C@@H]65)C2)C1` [Vinblastin], the “decrease of chemotherapeutic drug resistance by α-enolase-directed siRNA vs mock siRNA” value in series [7] turned out to be 8 fold. Moreover, the pEC50 in series [7] (Caov-3, control, read-out: Control (EC50)) is 10.66; in series [7] (Caov-3, α-enolase specific RNAi, read-out: α-Enolase (EC50)) it was 11.46; in series [2] (setting [10]), 8.51; in series [2] (setting [11]) it was 8.81; in series [3] (setting [12]), 9.06; in series [3] (setting [13]), 9.04. Further, the pEC50 in series [3] (setting [14]) was 9.15; in series [3] (setting [15]), 8.98; in series [4] (setting [16]) it was 10.28; in series [4] (setting [17]) it was 11.26; in series [5] (setting [18]) it was 8.62; in series [5] (setting [19]), 10.12. Moreover, in series [2], the “viability … vs control cells” value was “decreased the viability”. Besides, the “combination with enolase siRNA in cell killing” value in series [4] (listed as vinblastine) is on record as “synergistic; also recorded: augment PC-3 cell killing”. The “chemosensitivity” value in series [5] (A549 cells) is “enhanced chemosensitivity”; in series [5] (A549 cells, listed as vinblastine), “significant shifts in their chemosensitivities”.

For `N.N.[Cl][Pt][Cl]` [Cisplatinum], the negative logarithm of the EC50 (pEC50) was 3.93 in series [1] (MCF-7 cells, control siRNA, 72 hrs drug, read-out: Control (EC50)); 4.04 in series [1] (MCF-7 cells, α-enolase specific siRNA, read-out: α-Enolase (EC50)); 7.35 in series [2] (setting [16]); 7.62 in series [2] (setting [17]); 3.49 in series [5] (read-out: Control (EC50), A549 cells, control siRNA); 3.66 in series [5] (read-out: α-Enolase (EC50), A549 cells, α-enolase specific siRNA). In addition, the “viability … vs control cells” value in series [2] is listed as “decreased the viability”.

Consider `COc1cccc2c1C(=O)c1c(O)c3c(c(O)c1C2=O)C[C@@](O)(C(=O)CO)C[C@@H]3O[C@H]1C[C@H](N)[C@H](O)[C@H](C)O1` [Doxorubicin], for which the pEC50 is 4.04 in series [1] (setting [8]); 4.20 in series [1] (setting [9]); 6.92 in series [2] (setting [10]); 7.52 in series [2] (setting [11]); 6.54 in series [5] (setting [18]); 6.53 in series [5] (setting [19]). The “viability … vs control cells” value in series [2] is reported as “greatest decreases in viability”.

As for `N[C@@H](Cc1ccc(N(CCCl)CCCl)cc1)C(=O)O` [Melphalan], the pEC50 in series [1] (Homo sapiens, MCF7, 72 h, read-out: Control (EC50)) was 4.83; in series [1] (Homo sapiens, MCF7, read-out: α-Enolase (EC50)), 4.94.

The values are drawn from patent publication US20070077583A1, “Alpha enolase-directed diagnostics and therapeutics for cancer and chemotherapeutic drug resistance” (Aurelium BioPharma, Inc., priority 2005, published 2007).
